Target: T1, P2RY8 (Homo sapiens, UniProt Q86VZ1)
T1 construct: purchased Promega (in-house HiBiT-GPCR construct library, NanoBRET)
Test: NanoBRET screen HiBiT-P2RY8 in HEK293
Format: binding
Protocol: Each tracer candidate was screened across the entire library of HiBiT-GPCR constructs using NanoBRET as the detection modality. As depicted in Figure 4A, the specificity of interactions was evaluated through decrease in BRET due to competitive displacement of a bound tracer by excess parental compound. Each tracer was analyzed for binding to each HiBiT-GPCR fusion in the absence and in the presence of competing parental compound. Briefly, HEK293 cells were transfected with HiBiT-GPCR constructs diluted into promoterless DNA to reduce expression and maximize translocation to the cell surface. Each tracer candidate was then screened at concentrations of 1 μM and 0.1 μM across cells expressing these fusions. Cells were treated for 1.5 h with tracer either alone or in the presence of 20 μM competing parental compound (i.e., control). BRET was measured upon addition of purified LgBiT and subsequent complementation with HiBiT genetically fused to a GPCR. The specificity of interactions was assessed through a decrease in BRET signal due to competitive displacement of the bound tracer. To further gauge the robustness of these interactions, the fold response over the control (i.e., BRETtracer/BRETcontrol) was calculated. We chose a 1.5-fold response, which translates to ≥7-fold signal over noise as the minimal threshold required to score an interaction as positive.
HiBiT-GPCR DNA constructs were diluted in 10 mM Tris pH 8 to a final concentration of 0.01 μg/μL, arrayed in 96-well plates and stored at −20 °C. For transfection, HEK293 cells were suspended in Opti-MEM (without phenol red) supplemented with 2% fetal bovine serum (Seradigm) and 100 units/mL penicillin–streptomycin (Gibco) at a final concentration of 220,000 cells/mL and dispensed into white 96-well plates at 90 μL/well. Subsequent transfections and screens were carried using an Agilent Bravo Automated Liquid Handling Platform. First, the 96-well HiBiT DNA arrays were diluted 25-fold in Opti-MEM (without serum or phenol red) to a final concentration of 0.0004 μg/μL and 20 μL of the diluted DNAs were transferred into new 96-well plates. Next, promoterless carrier DNA (1 μg/μL) was diluted 25-fold (0.04 μg/μL) and then dispensed into the diluted arrays at 20 μL/well. Following brief mixing, Viafect transfection reagent (Promega) diluted 16-fold into Opti-MEM was dispensed into the plates at 40 μL/well. After mixing by pipetting, plates were incubated for 10 min on the pipetting station deck. The DNA-transfection reagent complexes were then added to plates containing cells. To facilitate the screen, 10 μL of DNA-transfection reagent complexes were added in duplicates to the top 4 and bottom 4 rows, resulting in two identical 48-well arrays per plate. Plates with transfected cells were incubated for 18–20 h at 37 °C/5% CO2. A screen of each tracer across the entire library using two different concentrations requires duplicate plates of transfected cells. Depending on the number of tracers being screened, transfections can be scaled up using the same ratios. The next day, for each tracer, four 20× screening solutions in tracer dilution buffer (Promega) were prepared: two duplicates at final concentration of 20 μM and two duplicates at a final concentration of 2 μM. […] The four resulting solutions were diluted 4-fold in Opti-MEM without serum or phenol red to generate 5× solutions (5 µM and 0.5 µM tracer +/− 100 μM competing compound). To screen the library, a BioTek MultiFlo FX liquid dispenser was used to dispense 22.5 µL of tracer solution to the top 4 rows and 22.5 µL tracer + competing compound solution to the 4 bottom rows. Plates were briefly mixed on an orbital shaker and incubated for 1.5 h at room temperature. […] Plates were briefly mixed on an orbital shaker and incubated for 15 min to allow complementation.

T1 sequence (Q86VZ1 whole entry): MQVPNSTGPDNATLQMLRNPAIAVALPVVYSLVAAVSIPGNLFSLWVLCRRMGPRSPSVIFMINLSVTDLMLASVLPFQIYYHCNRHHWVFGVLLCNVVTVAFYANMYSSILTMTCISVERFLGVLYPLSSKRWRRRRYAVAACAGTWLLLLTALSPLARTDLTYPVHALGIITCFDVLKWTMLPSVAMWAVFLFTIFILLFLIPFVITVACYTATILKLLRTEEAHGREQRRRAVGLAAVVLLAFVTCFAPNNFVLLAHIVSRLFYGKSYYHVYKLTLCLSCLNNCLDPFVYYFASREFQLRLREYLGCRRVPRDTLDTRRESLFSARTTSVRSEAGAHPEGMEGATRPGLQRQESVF

Row | SMILES | NanoBRET Fold Response (P2RY8, tracer 0.1μM) | NanoBRET Fold Response (P2RY8, tracer 1μM) | further results
1 | Cc1nc2n(c(=O)c1CCN1CCC(c3noc4cc(F)ccc34)CC1)CCCC2OC(=O)NCCOCCOCCOCCOCCNC(=O)CCc1ccc2n1[B-](F)(F)[N+]1=C(c3ccc[nH]3)C=CC1=C2 (stereo not shown) [Risperidone-2-NB590] | 1.06 | 0.96 | –
2 | CCOC(=O)c1cc(C#N)c(N2CCC(C(=O)NS(=O)(=O)Cc3ccccc3/C=C/C(=O)NCCNC(=O)CCc3ccc4n3[B-](F)(F)[N+]3=C(c5ccc[nH]5)C=CC3=C4)CC2)nc1C [AZD1283-1-NB590] | – | – | NanoBRET Fold Response (P2RY8, 0.1μM): 1.56; NanoBRET Fold Response (P2RY8, 1μM): 1.89
3 | Cc1cc2c(s1)Nc1ccccc1N=C2N1CCN(CCCNC(=O)CCOCCOCCOCCOCCNC(=O)CCc2ccc3n2[B-](F)(F)[N+]2=C(c4ccc[nH]4)C=CC2=C3)CC1 [Olanzapine-a-2-NB590] | – | 1.13 | –
4 | COc1ccccc1N1CCN(CCCCN2C(=O)c3ccc(CNC(=O)CCOCCNC(=O)c4ccc(CNC(=O)CCc5ccc6n5[B-](F)(F)[N+]5=C(c7ccc[nH]7)C=CC5=C6)cc4)cc3C2=O)CC1 [NAN-190-3-NB590] | 1.21 | 1.12 | –
5 | CC(C)N(CC[C@H](c1ccccc1)c1cc(CCNC(=O)CCOCCOCCOCCOCCNC(=O)CCc2ccc3n2[B-](F)(F)[N+]2=C(c4ccc[nH]4)C=CC2=C3)ccc1O)C(C)C [Tolterodine-2-NB590] | 1.06 | 1.22 | –
6 | CN(C)CCC=C1c2ccccc2CCc2ccc(C(=O)NCCNC(=O)CCOCCOCCOCCOCCNC(=O)CCc3ccc4n3[B-](F)(F)[N+]3=C(c5ccc[nH]5)C=CC3=C4)cc21 [Amitriptyline-b-2-NB590] | – | – | NanoBRET Fold Response (tracer at 0.1μM, listed as amitriptyline-b-2-NB590): 0.88; NanoBRET Fold Response (tracer at 1μM, listed as amitriptyline-b-2-NB590): 1.07
7 | O=C(CCOCCOCCOCCOCCNC(=O)CCc1ccc2n1[B-](F)(F)[N+]1=C(c3ccc[nH]3)C=CC1=C2)NCCCN1CCN(C2=Nc3ccccc3Oc3ccc(Cl)cc32)CC1 [Loxapine-a-2-NB590] | 0.95 | 0.87 | –
8 | CN(C)CCC=C1c2ccccc2CCc2ccc(C(=O)NCCNC(=O)CCOCCOCCOCCOCCNC(=O)CCc3ccc4n3[B-](F)(F)[N+]3=C(c5ccc[nH]5)C=CC3=C4)cc21 [Amitriptyline-a-2-NB590] | – | – | NanoBRET Fold Response (tracer at 0.1μM): 1.05; NanoBRET Fold Response (tracer at 1μM): 0.90
9 | O=C(CCc1ccc2n1[B-](F)(F)[N+]1=C(c3ccc[nH]3)C=CC1=C2)NCCOCCOCCNC(=O)OCCOCCN1CCN(C2=Nc3ccccc3Sc3ccccc32)CC1 [Quetiapine-a-2-NB590] | 0.94 | 0.88 | –
10 | COc1ccccc1N1CCN(CCCCN2C(=O)c3ccc(CNC(=O)CCOCCOCCOCCOCCNC(=O)CCc4ccc5n4[B-](F)(F)[N+]4=C(c6ccc[nH]6)C=CC4=C5)cc3C2=O)CC1 [NAN-190-2-NB590] | 0.99 | 1.14 | –
11 | CN1CCN(C2=Nc3cc(Cl)ccc3N(CC(=O)NCCOCCOCCOCCOCCNC(=O)CCc3ccc4n3[B-](F)(F)[N+]3=C(c5ccc[nH]5)C=CC3=C4)c3ccccc32)CC1 [Clozapine-c-2-NB590] | – | – | NanoBRET Fold Response (P2RY8, 0.1μM tracer): 1.05; NanoBRET Fold Response (P2RY8, 1μM tracer): 0.79
12 | COc1ccc2[nH]c(-c3ccc(CNC(=O)CCOCCOCCOCCOCCNC(=O)CCc4ccc5n4[B-](F)(F)[N+]4=C(c6ccc[nH]6)C=CC4=C5)cc3)c(CCNC(C)=O)c2n1 [AzomelatoninICO9-2-NB590] | – | – | NanoBRET Fold Response (0.1μM tracer): 1.14; NanoBRET Fold Response (1μM tracer): 1.05
13 | O=C(CCOCCOCCOCCOCCNC(=O)CCc1ccc2n1[B-](F)(F)[N+]1=C(c3ccc[nH]3)C=CC1=C2)NCCCN1CCN(C2=Nc3cc(Cl)ccc3Nc3ccccc32)CC1 [Clozapine-a-2-NB590] | – | – | NanoBRET Fold Response (P2RY8, 0.1μM tracer): 0.97; NanoBRET Fold Response (P2RY8, 1μM tracer): 0.96
14 | CCCn1c(=O)c2[nH]c(-c3ccc(OCC(=O)NCCNC(=O)CCOCCNC(=O)c4ccc(CNC(=O)CCc5ccc6n5[B-](F)(F)[N+]5=C(c7ccc[nH]7)C=CC5=C6)cc4)cc3)nc2n(CCC)c1=O [XAC-3-NB590] | 1.30 | 0.83 | –
15 | O=C(CCc1ccc2n1[B-](F)(F)[N+]1=C(c3ccc[nH]3)C=CC1=C2)NCc1ccc(C(=O)NCCOCCOCCNCC(O)COc2cccc3ccccc23)cc1 (stereo not shown) [Propranolol-3-NB590] | – | – | NanoBRET Fold Response (P2RY8, 0.1μM): 1.11; NanoBRET Fold Response (P2RY8, 1μM): 1.00
16 | O=C(CCc1ccc2n1[B-](F)(F)[N+]1=C(c3ccc[nH]3)C=CC1=C2)NCc1ccc(C(=O)NCCOCCC(=O)N[C@@H]2CC[C@@]3(O)[C@H]4Cc5ccc(O)c6c5[C@@]3(CCN4CC3CC3)[C@H]2O6)cc1 [Naltrexone-3-NB590] | 0.86 | 0.47 | –
17 | CN(CCC=C1c2ccccc2CCc2ccccc21)C(=O)CCOCCOCCOCCOCCNC(=O)CCc1ccc2n1[B-](F)(F)[N+]1=C(c3ccc[nH]3)C=CC1=C2 [Amitriptyline-e-2-NB590] | – | – | NanoBRET Fold Response (tracer at 1μM): 0.99
18 | N#CN=C(NCCCOc1cccc(CN2CCCCC2)c1)NCCNC(=O)CCOCCOCCOCCOCCNC(=O)CCc1ccc2n1[B-](F)(F)[N+]1=C(c3ccc[nH]3)C=CC1=C2 [Aminopotentidine-2-NB590] | 1.06 | 1.02 | –
19 | COc1ccc2c(n1)c(CCNC(C)=O)cn2CCNC(=O)CCc1ccc2n1[B-](F)(F)[N+]1=C(c3ccc[nH]3)C=CC1=C2 [Azamelatonin-1-NB590] | – | – | NanoBRET Fold Response (0.1μM tracer): 1.30; NanoBRET Fold Response (1μM tracer): 1.30
20 | CC(C)N(CC[C@H](c1ccccc1)c1cc(CCNC(=O)c2ccc(CNC(=O)CCc3ccc4n3[B-](F)(F)[N+]3=C(c5ccc[nH]5)C=CC3=C4)cc2)ccc1O)C(C)C [Tolterodine-BZ-NB590] | 0.96 | 1.01 | –
21 | CN1CCN(C2=Nc3cc(Cl)ccc3Nc3ccc(CNC(=O)CCOCCOCCOCCOCCNC(=O)CCc4ccc5n4[B-](F)(F)[N+]4=C(c6ccc[nH]6)C=CC4=C5)cc32)CC1 [Clozapine-b-2-NB590] | – | – | NanoBRET Fold Response (P2RY8, 0.1μM tracer): 0.97; NanoBRET Fold Response (P2RY8, 1μM tracer): 0.93
